Data published in patent US7342017B2, “1,2,5-Thiadiazol-3-yl-piperazine therapeutic agents useful for treating pain, depression and anxiety” (Euro-Celtique S.A., priority 2002, dated 2008).

How the values were obtained:
Human VR1 Receptor [1] = target: T1, Human VR1 Receptor (Homo sapiens, UniProt Q8NER1); assay: Inhibition of capsaicin-induced activation of VR1; type: cell-based; details: mean ± spread, (n) = number of experiments, read-out: Inhibition of capsaicin-induced activation IC50 (nM) Mean IC50 ± SEC (n)
From the text: (§1) Binding of the Thiadiazolylpiperazine Compounds to the Human VR1 Receptor
(§2) Methods for assaying compounds capable of inhibiting VR1 are well known to those skilled in the art, for example, those methods disclosed in U.S. Pat. No. 6,239,267 to Duckworth et al.; U.S. Pat. No. 6,406,908 to McIntyre et al.; or U.S. Pat. No. 6,335,180 to Julius et al.

Human VR1 Receptor [2] = target: T1, Human VR1 Receptor; assay: Inhibition of pH-induced activation of VR1; type: cell-based; details: mean ± spread, (n) = number of experiments, read-out: Inhibition of pH-induced activation IC50 (nM) Mean IC50 ± SEC (n)
From the text: as §1, §2

T1 sequence (Q8NER1 whole entry): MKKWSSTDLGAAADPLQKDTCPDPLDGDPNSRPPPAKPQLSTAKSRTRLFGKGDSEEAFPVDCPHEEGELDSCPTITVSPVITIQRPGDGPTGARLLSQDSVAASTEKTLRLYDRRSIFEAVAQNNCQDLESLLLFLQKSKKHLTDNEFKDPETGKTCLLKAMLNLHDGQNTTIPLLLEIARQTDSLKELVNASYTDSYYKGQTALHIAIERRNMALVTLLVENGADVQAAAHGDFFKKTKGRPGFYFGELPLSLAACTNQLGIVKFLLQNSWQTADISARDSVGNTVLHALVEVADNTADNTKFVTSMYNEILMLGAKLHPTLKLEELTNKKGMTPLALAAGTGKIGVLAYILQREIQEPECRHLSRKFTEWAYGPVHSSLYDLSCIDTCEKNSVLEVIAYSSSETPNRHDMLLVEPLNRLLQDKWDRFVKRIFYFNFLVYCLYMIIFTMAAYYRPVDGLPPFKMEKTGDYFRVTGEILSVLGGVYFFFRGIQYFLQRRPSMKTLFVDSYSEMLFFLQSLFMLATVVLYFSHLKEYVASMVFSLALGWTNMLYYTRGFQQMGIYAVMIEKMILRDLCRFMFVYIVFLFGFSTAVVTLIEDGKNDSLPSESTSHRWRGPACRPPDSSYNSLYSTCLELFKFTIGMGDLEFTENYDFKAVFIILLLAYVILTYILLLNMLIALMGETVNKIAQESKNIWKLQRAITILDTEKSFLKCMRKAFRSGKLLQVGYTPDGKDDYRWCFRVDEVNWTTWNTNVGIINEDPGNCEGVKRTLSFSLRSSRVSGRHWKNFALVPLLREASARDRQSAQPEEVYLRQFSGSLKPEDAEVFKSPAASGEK

CC(C)c1ccc(NC(=O)N2CCN(c3nsnc3Cl)CC2)cc1
IC50 (Human VR1 Receptor [1]): 374 ± 233 nM | IC50 (Human VR1 Receptor [2]): 668 ± 265 nM
